According to PMC6274483, “Novel Selective and Potent EGFR Inhibitor that Overcomes T790M-Mediated Resistance in Non-Small Cell Lung Cancer” (Molecules, 2016):
Entries after “also recorded” stand apart in the source; their conditions may differ. Read-outs that look alike come from different tables or passages of the source. Values belong to the molecule of their own block, whether it stands above or below them.

Experiments:
H1975 cells [1] = test: Cell cycle analysis, PI flow cytometry, H1975; format: cell-based, human; conditions: H1975, 200 nM, 48 h, cell cycle phase
Protocol: (§1) The H1975 and A431 cells at a density of approximately 2 × 10^5 cells/well were incubated in 6-well plates, treated with different concentrations of inhibitors for 48 h, collected and fixed with 70% ethanol at 4 °C overnight. After fixation, the cells were washed with PBS and stained with propidium iodide (PI) for 10 min under subdued light. Stained cells were analyzed by flow cytometry assay (Becton-Dickinson, Franklin Lakes, NJ, USA).

A431 cells [2] = test: CCK-8 cell viability, A431; format: cell-based; conditions: Homo sapiens
Protocol: (§2) All the cell viability assays were performed according to the CCK-8 method. The cells were seeded at a density of 5 to 8 × 10^4 cells/mL in 96-well plates in growth medium supplemented with 10% serum at 37 °C with 5% CO2 for one day. After 12 h of incubation, 100 μL of medium was removed, and 100 μL of sample solution with different concentrations of inhibitor was added and then the cells were incubated for 48 or 72 h. Subsequently, 10 μL of CCK-8 reagent (Biotool Company, Kirchberg, Switzerland, 5.0 mg/mL) dissolved in phosphate-buffered saline (PBS) was added and the cells were incubated for another 4 h. The absorbance was read at 450 nm with a microplate reader (Thermo Fisher Scientific, Waltham, MA, USA). The data were calculated using GraphPad Prim version 5.0.

H1975 cells [3] = test: Cell apoptosis, Annexin V-FITC/PI flow cytometry, H1975; format: cell-based, human; conditions: 48 h
Protocol: The H1975 and A431 cells (1 to 5 × 10^5 cells/well) incubated in 6-well plates were treated by different concentrations of inhibitors for 48 h. Then, they were collected and fixed with 70% ethanol at 4 °C overnight. After beening fixed with […], the cells were stained with Annexin V-FITC (5 μL)/propidium iodide (5 μL) and analyzed by flow cytometry assay (Becton-Dickinson, Franklin Lakes, NJ, USA).

wild-type EGFR = target: T1, wild-type EGFR (Homo sapiens, UniProt P00533); test: EGFR kinase enzymatic assay (ADP-Glo), wild-type; format: biochemical; conditions: read-out: EGFR (IC50, nM) WT
T1 construct: purchased Promega Corporation V3831
Protocol: (§3) The experiments were performed according to the instructions of the manufacturer. […] The test was performed in a 384-well plate, and includes the major steps below: (1) perform a 5 μL kinase reaction using 1× kinase buffer (e.g., 1× reaction buffer A); (2) incubate at room temperature for 60 min; (3) add 5 μL of ADP-Glo™ Reagent to stop the kinase reaction and deplete the unconsumed ATP, leaving only ADP and a very low background of ATP; (4) incubate at room temperature for 40 min; (5) add 10 μL of Kinase Detection; (6) reagent to convert ADP to ATP and introduce luciferase and luciferin to detect ATP; (7) incubate at room temperature for 30 min; (8) plate was measured on TriStar® LB942 Multimode Microplate Reader (BERTHOLD TECHNOLOGIES GmbH & Co. KG., Bad Wildbad, Germany) to detect the luminescence (Integration time 0.5–1 s). Curve fitting and data presentations were performed using GraphPad Prism version 5.0 (GraphPad Software, Inc.).

A431 cells [4] = test: Wound healing and transwell assays, A431; format: cell-based, human
Protocol: (§4) The cancer cells were cultured in 6-well plates for 48 h at 37 °C. Wounds were created in the cell monolayer and washed with PBS to remove cell debris, then the cells were treated with different concentrations of inhibitor for 48 h. After that, the dead cells were washed away with PBS, and the images were taken by the fluorescence microscope (OLYMPUS).
(§5) Cell migration assay was evaluated by using Boyden chambers containing a transwell membrane filter with an 8 μm size pore (Corning Costa Corp, Cambridge, MA, USA). Prior to the invasion assay, the filter membrane was coated with 60 μL of Matrigel (BD Biosciences, Billerica, MA, USA) at a 1:8 dilution and rehydrated by adding […] serum-free medium to the apical side of the chamber at 37 °C for 0.5 h. The cells (2 × 10^5 cells/well for invasion assay) were seeded to the apical side of the chamber with 200 μL medium with different concentrations of inhibitors, and the basolateral side of the chamber was filled with 600 μL medium containing 10% FBS. After 24 h at 37 °C, the cells adherent to the upper surface of the filter were swept by cotton swabs, then fixed with methanol, stained with crystal violet, and the cells were counted under a microscope in five random fields, irrespective of staining intensity. The images were taken by the fluorescence microscope (OLYMPUS).

[5] = In vivo blood sugar test (rat oral glucose tolerance); conditions: healthy male SD rats, 50 mg/kg (HBr form), up to 12 h
Protocol: The Roche Accu-chek® Go blood meter was used for the determination of glucose concentration. Before testing, standard set-up of blood meter was performed according to the instrument’s specifications. […] Water was allowed ad libitum throughout the study. Rats were orally given compound DY3002 (50 mg/kg) and a vehicle. For the oral study, the compounds were formulated as a solution (Solutol HS15: NS = 30:70, v:v). Sampling occurred prior to dosing and at 7–9 different time points up to 12 h. Concentration of glucose in the blood was determined by blood meter.

LoVo cells = test: CCK-8 cell viability, LoVo; format: cell-based; conditions: Homo sapiens
Protocol: as §2

LO-2 cells = test: CCK-8 cell viability, LO-2 normal liver cells; format: cell-based; conditions: Homo sapiens, L02, LO-2 normal liver cell line, read-out: Cellular Antiproliferative Activity (IC50, μM) LO-2
Protocol: as §2

A431 cells [6] = test: AO/EB and DAPI staining, A431; format: cell-based, human; conditions: A431, AO/EB or DAPI staining, 48 h
Protocol: (§6) Approximately 2 × 10^5 cells/well of A431 and H1975 cells in 6-well plates were incubated in an incubator for 48 h, then treated with different concentrations of inhibitors for 48 h. After incubation, the cells were washed with PBS twice. Then, total of 20 μL of the solution containing the AO/EB dye mix (1.0 μg/mL of AO and 1.0 μg/mL of EB in PBS) was added to the cells. The apoptotic, necrotic, and live cells were observed and counted under the fluorescent microscope (OLYMPUS, Tokyo, Japan). DAPI staining was performed after being treated as mentioned above. The cells plated in 6-well plates were washed twice with PBS and fixed with 10% formaldehyde for 10 min, then washed with PBS three times. Cells were subsequently incubated in DAPI (1.0 μg/mL) solution at room temperature for 10 min, washed with PBS and examined under a fluorescence microscope (OLYMPUS).

EGFR L858R/T790M = target: T2, EGFR L858R/T790M (Homo sapiens, UniProt P00533, L858R/T790M); test: EGFR kinase enzymatic assay (ADP-Glo), L858R/T790M mutant; format: biochemical
T2 construct: purchased Promega Corporation V5324
Protocol: as §3, with “Concentrations consisting of suitable levels from 0.1 to 100 nM were used for all of the tested compunds. The experiments” for “The experiments”

H1299 cells = test: CCK-8 cell viability, H1299; format: cell-based; conditions: Homo sapiens, NCI-H1299, H1299 (wild-type), read-out: Cellular Antiproliferative Activity (IC50, μM) H1299
Protocol: as §2

H1975 cells [7] = test: Wound healing and transwell assays, H1975; format: cell-based, human
Protocol: as §4, §5

A431 cells [8] = test: Cell cycle analysis, PI flow cytometry, A431; format: cell-based, human; conditions: 48 h
Protocol: as §1

A431 cells [9] = test: Intracellular ROS generation (DCFH-DA), A431; format: cell-based, human; conditions: A431, 24 h
Protocol: (§7) The human H1975 and A431 cells at a density of approximately 2 × 10^5 cells/well were plated in a 6-well plate and then treated with different concentrations of inhibitors for 24 h. Then the cells were harvested, resuspended in 1 mL of DCFH-DA ([…]), and the levels of ROS were determined by flow cytometry (Becton-Dickinson, Franklin Lakes, NJ, USA).

H1975 cells [10] = test: Intracellular ROS generation (DCFH-DA), H1975; format: cell-based, human; conditions: H1975, 24 h
Protocol: as §7

H1975 cells [11] = test: CCK-8 cell viability, H1975; format: cell-based; conditions: Homo sapiens, NCI-H1975, H1975 (EGFR T790M), read-out: Cellular Antiproliferative Activity (IC50, μM) H1975
Protocol: as §2

A431 cells [12] = test: Cell apoptosis, Annexin V-FITC/PI flow cytometry, A431; format: cell-based, human; conditions: 48 h
A549 cells = test: CCK-8 cell viability, A549; format: cell-based; conditions: Homo sapiens
Protocol: as §2

H1975 cells [13] = test: AO/EB and DAPI staining, H1975; format: cell-based, human; conditions: H1975, AO/EB or DAPI staining, 48 h
Protocol: as §6

HBE cells = test: CCK-8 cell viability, HBE normal bronchial cells; format: cell-based; conditions: HBE normal human bronchial cell line, read-out: Cellular Antiproliferative Activity (IC50, μM) HBE
Protocol: as §2

HCC827 cells = test: CCK-8 cell viability, HCC827; format: cell-based; conditions: Homo sapiens
Protocol: as §2

[14] = high dose, patients in clinical trials; cited from earlier work
[15] = A-431, A431 (wild-type), CCK-8, read-out: Cellular Antiproliferative Activity (IC50, μM) A431
[16] = CCK-8, read-out: Cellular Antiproliferative Activity (IC50, μM) LoVo
[17] = A549 (wild-type and k-ras), CCK-8, read-out: Cellular Antiproliferative Activity (IC50, μM) A549
[18] = HCC827 (EGFR del E746_A750), CCK-8, read-out: Cellular Antiproliferative Activity (IC50, μM) HCC827

SMILES: C=CC(=O)Nc1cccc(Nc2nc(Nc3ccc(CN4CCOCC4)cc3)ncc2Cl)c1 [DY3002, N-(3-((5-chloro-2-(4-((1-morpholino)methyl)phenylamino)-4-pyrimidinyl)amino)phenyl)acrylamide]
G0/G1 (H1975 cells [1]): 91.33% | S (H1975 cells [1]): 5.67% | IC50 (A431 cells [2]; [15]): 0.382 µM | Apoptosis rate (%) (H1975 cells [3]; H1975, 100 nM): 25.7% | Apoptosis rate (%) (H1975 cells [3]; H1975, 200 nM): 72.0% | Apoptosis rate (%) (H1975 cells [3]; H1975, 400 nM): 90.1% | IC50 (wild-type EGFR): 449 nM | inhibition of cell migration (A431 cells [4]): only moderately interfered | hyperglycemia (blood glucose concentration versus control group) [5]: did not result in hyperglycemia; also recorded: did not yield hyperglycemia; also recorded: no hyperglycemia side effects | IC50 (LoVo cells; [16]): 2.46 µM | IC50 (LO-2 cells): 4.24 µM | apoptotic morphology (A431 cells [6]): striking nuclear condensation, membrane blebbing, nuclear fragmentation, and apoptotic bodies | IC50 (EGFR L858R/T790M; EGFR L858R/T790M, ADP-Glo kinase assay): 0.71 nM | SI(WT:L858R/T790M) (EGFR L858R/T790M; selectivity index, IC50 WT / IC50 L858R/T790M): 632.0 | IC50 (H1299 cells): 4.12 µM | inhibition of cell migration (H1975 cells [7]): strongly inhibit migration | G0/G1 (A431 cells [8]; A431, 2 μM, cell cycle phase): 75.87% | cell-cycle arrest (A431 cells [8]; A431, 0.5, 1 and 2 μM): G0/G1 arrest | effect on ROS generation (A431 cells [9]): effectively inhibited ROS generation | effect on ROS generation (H1975 cells [10]): effectively inhibited ROS generation | IC50 (H1975 cells [11]): 0.037 µM | Apoptosis rate (%) (A431 cells [12]; A431, 0.5 μM): 46.1% | Apoptosis rate (%) (A431 cells [12]; A431, 1 μM): 50.8% | Apoptosis rate (%) (A431 cells [12]; A431, 2 μM): 61.6% | IC50 (A549 cells; [17]): 4.45 µM | apoptotic morphology (H1975 cells [13]): striking nuclear condensation, membrane blebbing, nuclear fragmentation, and apoptotic bodies | IC50 (HBE cells): > 40 µM | IC50 (HCC827 cells; [18]): 0.0104 µM

SMILES: COc1cc2ncnc(Nc3ccc(F)c(Cl)c3)c2cc1OCCCN1CCOCC1 [Gefitinib, gefitinib, reference compound]
Apoptosis rate (%) (H1975 cells [3]; H1975, 200 nM): 4.6%

SMILES: C=CC(=O)Nc1cc(Nc2nccc(-c3cn(C)c4ccccc34)n2)c(OC)cc1N(C)CCN(C)C [Osimertinib, osimertinib]
IC50 (A431 cells [2]; A-431, read-out: Cellular Antiproliferative Activity (IC50, μM) A431): […] | IC50 (LoVo cells; read-out: Cellular Antiproliferative Activity (IC50, μM) LoVo): 4.85 µM | IC50 (LO-2 cells): 4.56 µM | IC50 (H1299 cells): 7.49 µM | effect on ROS generation (A431 cells [9]): […] | effect on ROS generation (H1975 cells [10]): […] | IC50 (H1975 cells [11]): 0.087 µM | IC50 (A549 cells; A549, read-out: Cellular Antiproliferative Activity (IC50, μM) A549): 7.28 µM | IC50 (HBE cells): 8.39 µM | IC50 (HCC827 cells; HCC827, read-out: Cellular Antiproliferative Activity (IC50, μM) HCC827): 0.0102 µM

IC50 (A431 cells [2]; [15]): 1.29 µM | IC50 (LoVo cells; [16]): 20.1 µM | IC50 (H1299 cells): 20.1 µM | IC50 (H1975 cells [11]): 0.137 µM | IC50 (A549 cells; [17]): 6.5 µM | IC50 (HCC827 cells; [18]): 0.0181 µM
SMILES: C=CC(=O)Nc1cccc(Nc2nc(Nc3ccc(N4CCN(C(C)=O)CC4)cc3OC)ncc2C(F)(F)F)c1 [Rociletinib, rociletinib]
Apoptosis rate (%) (H1975 cells [3]; H1975, 200 nM): 65.2% | IC50 (LO-2 cells): 8.57 µM | side effect in patients [14]: hyperglycemia | effect on ROS generation (A431 cells [9]): effectively inhibited ROS generation | effect on ROS generation (H1975 cells [10]): effectively inhibited ROS generation | Apoptosis rate (%) (A431 cells [12]; A431, 1 μM): 54.5% | IC50 (HBE cells): > 40 µM
